This note sets out measurements from EP4703359A1 (Shanghai Simr Biotechnology Co., Ltd., priority 2023, dated 2024).

Where a name gives a salt, the structure may show the parent alone. Read-outs that look alike come from different tables or passages of the source.

For this test, the target named is T1, α2-GABAA receptor (Homo sapiens, UniProt P18507+P47869).
T1 construct: expressed in transfected cells
Kind of test: Whole-cell patch-clamp electrophysiology, positive allosteric modulatory activity in α2-GABAAR-HEK293 cells. Type of test: cell-based. The note with it: for Emax at 0.1 µM: read-out: α2-GABAAR Positive allosteric modulatory activity. The text has this: The α subunit, β subunit, and γ subunit are indispensable for forming a fully functional GABAA receptor. In this example, HEK293 cells stably expressing α2-GABAA receptors (α2-GABAAR) were constructed and screened respectively via liposome transfection (Felgner, P.L., et al. Proceedings of the National Academy of Sciences, 1987, 84: 7413-7417). The α2-GABAAR-HEK293 cell model co-expresses the α2 subunit (protein sequence referenced under GenBank accession number: NM_000807.4), β3 subunit (protein sequence referenced under GenBank accession number: NM_000814.5), and γ2 subunit (protein sequence referenced under GenBank accession number: NM_000816.3).
The above cell lines were subcultured. α2-GABAAR-HEK293 cells were amplified for testing the affinity of compounds to the benzodiazepine (BZD) site of GABAA receptors. Some of the α2-GABAAR-HEK293 cells in suspension during subculturing were plated on glass slides pre-treated with Poly-D-Lysine for electrophysiological testing (method reference: Patent CN 107344936 A, paragraph 0586).
The positive modulatory activity of the test drug on the α2-GABAA receptor was assessed using electrophysiological methods. The specific approach is as follows:
With regards to the concentration of the compound, the final concentration of all compounds used in the screening was 100 nM. For cell lines expressing α2-GABAA receptors, the GABA concentration was 0.10 to 0.11 µM (approximately EC7-8). Electrophysiological experiments were conducted using the whole-cell patch-clamp technique, which can be referenced to the method reported in the literature (Nickolls, S. A., et al. *British Journal of Pharmacology*, 2018, 175: 708-725). The composition of the extracellular solution (ECS) for electrophysiology was as follows: 150 mM NaCl, 5 mM KCl, 2.5 mM CaCl2, 1 mM MgCl2, 10 mM HEPES, and 10 mM glucose (pH 7.4). The intracellular solution (ICS) for electrophysiology was formulated as follows: 140 mM CsCl, 11 mM EGTA, 10 mM HEPES, 2 mM CaCl2, 1 mM MgCl2, 4 mM MgATP, and 2 mM TEA (pH 7.3). GABA (γ-aminobutyric acid) powder was dissolved in pure water to prepare a stock solution, which was subsequently diluted in ECS. The compound was initially dissolved in dimethyl sulfoxide to prepare a 4 mM stock solution, followed by stepwise dilution into GABA-ECS at corresponding concentrations. All solutions were freshly prepared prior to electrophysiological testing.
Electrophysiological signals were acquired using an EPC 10 amplifier and PatchMaster software (HEKA) or an Axon 700B amplifier and Clampex software (AXON). The recording electrode was pulled from borosilicate glass, with an electrode resistance of 4 to 6 MΩ. Extracellular administration was performed using the ALA-VC-8PG™ system. A single independently growing cell was selected. After forming a tight seal between the glass electrode and the cell membrane, the membrane was ruptured to establish the whole-cell configuration. The cell membrane potential was clamped at -60 mV and recorded in Gap-free mode. During the test, extracellular fluid was first applied externally for approximately 20 seconds. After the baseline (Iprebaseline) was stabilized, the extracellular solution was switched to GABA-ECS. At this point, the current induced by GABA (Igaba) can be detected. After approximately 10 to 20 seconds, once the current had stabilized, the extracellular solution was switched to a mixture of the compound and GABA-ECS until the current induced by both the compound and GABA (Itreatment) could be detected. Finally, the solution was switched to extracellular fluid, and the recording was terminated after 20 to 40 seconds. Only cells with a stable baseline, an absolute control current magnitude (Igaba - Iprebaseline) greater than 40 pA, and a relatively stable current within 10 to 20 seconds were used for compound testing. […]

[1] abbreviates: compound 100 nM, GABA 0.10 to 0.11 µM (approximately EC7-8), normalized to reference compound CVL-865 (= 100%).

T1 sequence (P47869 29-451): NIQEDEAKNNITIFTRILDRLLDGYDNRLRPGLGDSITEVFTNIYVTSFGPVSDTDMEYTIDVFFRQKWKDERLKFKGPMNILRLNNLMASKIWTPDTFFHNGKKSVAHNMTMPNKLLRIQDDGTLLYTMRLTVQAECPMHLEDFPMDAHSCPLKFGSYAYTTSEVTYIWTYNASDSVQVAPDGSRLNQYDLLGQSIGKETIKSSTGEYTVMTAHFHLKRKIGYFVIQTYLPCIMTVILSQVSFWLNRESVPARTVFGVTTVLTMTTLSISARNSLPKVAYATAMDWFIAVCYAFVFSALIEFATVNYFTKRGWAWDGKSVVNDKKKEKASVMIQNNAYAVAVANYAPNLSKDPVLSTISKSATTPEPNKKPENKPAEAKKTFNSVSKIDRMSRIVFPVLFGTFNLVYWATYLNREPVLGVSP
T1 sequence (P18507 40-467 isoform P18507-1 limits assumed): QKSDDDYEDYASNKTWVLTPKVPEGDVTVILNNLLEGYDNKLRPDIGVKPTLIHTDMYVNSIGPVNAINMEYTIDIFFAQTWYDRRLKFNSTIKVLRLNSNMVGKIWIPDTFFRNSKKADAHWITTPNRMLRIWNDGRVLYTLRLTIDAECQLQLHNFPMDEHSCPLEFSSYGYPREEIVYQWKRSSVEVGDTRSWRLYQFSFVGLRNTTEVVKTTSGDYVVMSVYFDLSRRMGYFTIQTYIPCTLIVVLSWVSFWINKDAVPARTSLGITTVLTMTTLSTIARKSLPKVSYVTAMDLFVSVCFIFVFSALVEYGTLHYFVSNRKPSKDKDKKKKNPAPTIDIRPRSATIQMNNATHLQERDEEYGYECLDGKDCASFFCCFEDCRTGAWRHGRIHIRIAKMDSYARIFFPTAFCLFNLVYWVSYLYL
T1 sequence (P28472 26-473 partner): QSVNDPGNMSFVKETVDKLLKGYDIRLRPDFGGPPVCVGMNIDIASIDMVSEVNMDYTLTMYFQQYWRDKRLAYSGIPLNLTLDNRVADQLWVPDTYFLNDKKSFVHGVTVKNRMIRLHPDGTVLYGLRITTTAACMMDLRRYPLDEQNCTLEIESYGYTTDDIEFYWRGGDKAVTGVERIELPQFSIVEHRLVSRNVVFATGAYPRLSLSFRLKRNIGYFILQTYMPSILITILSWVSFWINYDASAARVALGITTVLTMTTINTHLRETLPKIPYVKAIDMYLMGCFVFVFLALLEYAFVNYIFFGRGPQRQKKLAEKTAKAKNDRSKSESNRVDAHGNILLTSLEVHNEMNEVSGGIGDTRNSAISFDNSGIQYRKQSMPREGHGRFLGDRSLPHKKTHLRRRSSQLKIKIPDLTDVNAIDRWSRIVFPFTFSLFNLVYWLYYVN

`CCCNC(=O)c1nc2c(CC(C)C)c(F)ccn2c1N` [Example 119]: the “α2-GABAAR Positive allosteric modulatory activity” value under setting [1] is reported as 33%. With `CCCNC(=O)c1nc2c(-c3cncc(C)c3)cccn2c1N` [Example 87, 3-Amino-8-(5-methylpyridin-3-yl)-N-propylimidazo[1,2-a]pyridine-2-carboxamide], the Emax at 0.1 µM under setting [1] stood at 48%.

`CCCNC(=O)c1nc2c(CC(C)C)cccn2c1N` [Example 143, 3-Amino-8-isobutyl-N-propylimidazo[1,2-a]pyridine-2-carboxamide hydrochloride]: the Emax at 0.1 µM amounted to 48%. Take `CCCNC(=O)c1nc2c(-c3cccc(C#N)c3)c(F)ccn2c1N` [Example 126, 3-Amino-8-(3-cyanophenyl)-7-fluoro-N-propylimidazo[1,2-a]pyridine-2-carboxamide]: the Emax at 0.1 µM under setting [1] came to 99%. As for `COCCNC(=O)c1nc2c(-c3c(F)cccc3OC)cccn2c1N` [Example 24, 3-Amino-8-(2-fluoro-6-methoxyphenyl)-N-(2-methoxyethyl)imidazo[1,2-a]pyridine-2-carboxamide], the Emax at 0.1 µM under setting [1] came out at 39%. `CCCNC(=O)c1nc2c(-c3cnccc3OC)c(F)ccn2c1N` [Example 114, 3-Amino-7-fluoro-8-(4-methoxypyridin-3-yl)-N-propylimidazo[1,2-a]pyridine-2-carboxamide]: the Emax at 0.1 µM under setting [1] is 124%. Take `CCCNC(=O)c1nc2c(-c3cccc(/C(C)=N/OC)c3)cccn2c1N` [Example 38, (E)-3-Amino-8-(3-(1-(methoxyimino)ethyl)phenyl)-N-propylimidazo[1,2-a]pyridine-2-carboxamide]: the Emax at 0.1 µM under setting [1] turned out to be 50%. As to `CCCNC(=O)c1nc2c(-c3cc(F)c4ocnc4c3)cccn2c1N` [Example 99], under setting [1], the “α2-GABAAR Positive allosteric modulatory activity” value worked out at 31%. `CCCNC(=O)c1nc2c(-c3cccnc3C)cccn2c1N` [Example 142, 3-Amino-8-(2-methylpyridin-3-yl)-N-propylimidazo[1,2-a]pyridine-2-carboxamide]: the Emax at 0.1 µM under setting [1] amounted to 45%.

As for `CCCNC(=O)c1nc2c(-c3c(F)ccc4c3OCC4)cccn2c1N` [Example 106, 3-Amino-8-(6-fluoro-2,3-dihydrobenzofuran-7-yl)-N-propylimidazo[1,2-a]pyridine-2-carboxamide], the Emax at 0.1 µM under setting [1] is 100%. For `CCCNC(=O)c1nc2c(-c3c(C#N)cccc3OC)cccn2c1N` [Example 73, 3-Amino-8-(2-cyano-6-methoxyphenyl)-N-propylimidazo[1,2-a]pyridine-2-carboxamide], the Emax at 0.1 µM under setting [1] was 64%.

Take `CCCNC(=O)c1nc2c(-c3c(OC)ccc4ccoc34)cccn2c1N` [Example 103, 3-Amino-8-(6-methoxybenzofuran-7-yl)-N-propylimidazo[1,2-a]pyridine-2-carboxamide]: under setting [1], the Emax at 0.1 µM is 87%. `CCn1cnc2c(-c3ccc(F)c(-c4ccc(S(=O)(=O)CC)cc4OC)c3)cnnc21` [CVL-865, reference compound]: under setting [1], the Emax at 0.1 µM stood at 100%. On to `CCCNC(=O)c1nc2c(-c3c(F)ccc4ccoc34)cccn2c1N` [Example 101, 3-Amino-8-(6-fluorobenzofuran-7-yl)-N-propylimidazo[1,2-a]pyridine-2-carboxamide], for which, under setting [1], the Emax at 0.1 µM was found to be 112%. As for `CCCNC(=O)c1nc2c(-c3cc4oc(=O)n(C)c4cc3OC)cccn2c1N` [Example 93, 3-Amino-8-(5-methoxy-3-methyl-2-oxo-2,3-dihydrobenzo[d]oxazol-6-yl)-N-propylimidazo[1,2-a]pyridine-2-carboxamide], the Emax at 0.1 µM under setting [1] was found to be 62%. On the same count and under the same terms, for `CCCNC(=O)c1nc2c(-c3cn4ccnc4cc3OC)cccn2c1N` [Example 94, 3'-Amino-7-methoxy-N-propyl-[6,8'-diimidazo[1,2-a]pyridine]-2'-carboxamide] the value was 51%; for `CCCNC(=O)c1nc2c(-c3ccnc(C#N)c3)cccn2c1N` [Example 89, 3-Amino-8-(2-cyanopyridin-4-yl)-N-propylimidazo[1,2-a]pyridine-2-carboxamide], 44%; for `CC1CN(C(=O)c2nc3c(-c4c(F)ccc5ccoc45)cccn3c2N)C1` [Example 102, (3-Amino-8-(6-fluorobenzofuran-7-yl)imidazo[1,2-a]pyridin-2-yl)(3-methylazetidin-1-yl)methanone], 44%.

For the compound `CCCNC(=O)c1nc2c(-c3c(F)ccc4ncoc34)cccn2c1N` [Example 100, 3-Amino-8-(6-fluorobenzoxazol-7-yl)-N-propylimidazopyridine-2-carboxamide], under setting [1], the Emax at 0.1 µM turned out to be 94%. As to `[2H]c1cc(-c2c(F)cccc2OC)c2nc(C(=O)NCCC)c(N)n2c1` [Example 154, 3-Amino-8-(2-fluoro-6-methoxyphenyl)-N-propylimidazo[1,2-a]pyridine-6-deuterio-2-carboxamide], under setting [1], the “α2-GABAAR Positive allosteric modulatory activity” value amounted to 84%.

Take `CCCNC(=O)c1nc2c(-c3cc(F)cc(C#N)c3)c(F)ccn2c1N` [Example 127]: the “α2-GABAAR Positive allosteric modulatory activity” value under setting [1] amounted to 77%. As to `CCCNC(=O)c1nc2c(-c3cncc(C#N)c3)cccn2c1N` [Example 88, 3-Amino-8-(5-cyanopyridin-3-yl)-N-propylimidazo[1,2-a]pyridine-2-carboxamide], under setting [1], the Emax at 0.1 µM turned out to be 63%. Take `CCCCNC(=O)c1nc2c(-c3c(F)cccc3OC)c(F)ccn2c1N` [Example 124, 3-Amino-N-butyl-7-fluoro-8-(2-fluoro-6-methoxyphenyl)imidazo[1,2-a]pyridine-2-carboxamide]: the Emax at 0.1 µM under setting [1] worked out at 90%. For the compound `C#CCNC(=O)c1nc2c(-c3c(F)cccc3OC)cccn2c1N` [Example 31, N-Propargyl-3-amino-8-(2-fluoro-6-methoxyphenyl)imidazo[1,2-a]pyridine-2-carboxamide], under setting [1], the Emax at 0.1 µM is 26%.

As to `COc1cccc(F)c1-c1c(F)ccn2c(N)c(C(=O)NCCC(F)(F)F)nc12` [Example 125, 3-Amino-7-fluoro-8-(2-fluoro-6-methoxyphenyl)-N-(3,3,3-trifluoropropyl)propylimidazo[1,2-a]pyridine-2-carboxamide], under setting [1], the “α2-GABAAR Positive allosteric modulatory activity” value is reported as 70%. With `CCCNC(=O)c1nc2c(-c3c(C#N)cccc3OC)c(F)ccn2c1N` [Example 118, 3-Amino-8-(2-cyano-6-methoxyphenyl)-7-fluoro-N-propylimidazo[1,2-a]pyridine-2-carboxamide], the Emax at 0.1 µM under setting [1] came to 51%. With `CCCNC(=O)c1nc2c(-c3c(F)ccc4ccc(OC)cc34)cccn2c1N` [Example 108, 3-Amino-8-(2-fluoro-7-methoxynaphthalen-1-yl)-N-propylimidazo[1,2-a]pyridine-2-carboxamide], the Emax at 0.1 µM under setting [1] came out at 50%.

As to `CCCNC(=O)c1nc2c(-c3c(F)cccc3OC)c(C)ccn2c1N` [Example 132, 3-Amino-8-(2-fluoro-6-methoxyphenyl)-7-methyl-N-propylimidazo[1,2-a]pyridine-2-carboxamide], the Emax at 0.1 µM under setting [1] is 48%.

Take `CCNC(=O)c1nc2c(-c3c(F)cccc3OC)cccn2c1N` [Example 2, 3-Amino-8-(2-fluoro-6-methoxyphenyl)-N-ethylimidazo[1,2-a]pyridine-2-carboxamide]: under setting [1], the Emax at 0.1 µM worked out at 35%. As for `COc1cccc(F)c1-c1cccn2c(N)c(C(=O)Nc3cnn(C)c3)nc12` [Example 15, 3-Amino-8-(2-fluoro-6-methoxyphenyl)-N-(1-methyl-1H-pyrazol-4-yl)imidazo[1,2-a]pyridine-2-carboxamide], the Emax at 0.1 µM under setting [1] came out at 61%.
